The values below come from ChEMBL document CHEMBL1129417, “Glucose transport-enhancing and hypoglycemic activity of 2-methyl-2-phenoxy-3-phenylpropanoic acids” (1996).

Some results are limits rather than exact numbers.

Assay [1] concerns 3T3-L1. Put plainly: In vitro measurements 2-Deoxyglucose (2DG) uptake in vehicle treated 3T3-L1 adipocytes at 100 uM dose. Type of assay: functional.
In assay [2] the test system is 3T3-L1. The assay can be described thus: Acute effects in vitro by measuring 2-deoxyglucose (2DG) uptake in vehicle treated 3T3-L1 adipocytes at 10 uM dose. It counts as functional.
Assay [3] deals with 3T3-L1. The assay can be described thus: Acute effects in vitro by measuring 2-deoxyglucose (2DG) uptake in vehicle treated 3T3-L1 adipocytes at 30 uM dose. It counts as functional.
The test system of assay [4] is 3T3-L1. Put plainly: In vitro by measurements of 2-Deoxyglucose (2DG) uptake in vehicle treated 3T3-L1 adipocytes at 3 uM dose. Type of assay: functional.
Assay [5] relates to L6. The assay can be described thus: compound was evaluated for their acute effects in vitro by measuring 2-Deoxyglucose (2DG) uptake in vehicle treated L6 […] at 60 uM dose. It counts as functional.
For assay [6], the system named is L6. Put plainly: compound was evaluated for their acute effects in vitro by measuring 2-Deoxyglucose (2DG) uptake in vehicle treated L6 […] at 100 uM dose. It counts as functional.
In assay [7] the test system is L6. Put plainly: compound was evaluated for their acute effects in vitro by measuring 2-Deoxyglucose (2DG) uptake in vehicle treated L6 […] at 30 uM dose. It counts as functional.
In assay [8] the test system is Mus musculus. Put plainly: In vivo hypoglycemic activity expressed as glucose lowering relative to positive control in 6-8 week old C57BL/6J ob/ob mouse at 10 mg/kg. Type of assay: functional.
Assay [9] has as its system Mus musculus. The assay can be described thus: compound was tested in vivo for hypoglycemic activity expressed as Glucose lowering relative to positive control in 6-8 week old C57BL/6J ob/ob mouse at 25 mg/kg. Type of assay: functional.
Assay [10] deals with Mus musculus. Put plainly: compound was tested in vivo for hypoglycemic activity expressed as Glucose lowering relative to positive control in 6-8 week old C57BL/6J ob/ob mouse at 50 mg/kg. It counts as functional.
Assay [11] is filed under the species Rattus norvegicus. The assay can be described thus: Inhibition of gluconeogenesis in rat. It counts as functional. Particulars: Rattus norvegicus; read-out: ED50.
In assay [12] the test system is 3T3-L1. Put plainly: compound was evaluated for their acute effects in vitro by measuring 2-Deoxyglucose (2DG) uptake in vehicle treated 3T3-L1 adipocytes at 10 uM dose. Type of assay: functional.
Assay [13] deals with 3T3-L1. The assay can be described thus: compound was evaluated for their acute effects in vitro by measuring 2-Deoxyglucose (2DG) uptake in vehicle treated 3T3-L1 adipocytes at 30 uM dose. Type of assay: functional.
Assay [14] relates to 3T3-L1. The assay can be described thus: compound was evaluated for their acute effects in vitro by measuring 2-Deoxyglucose (2DG) uptake in vehicle treated 3T3-L1 adipocytes at 60 uM dose. It counts as functional.
Assay [15] relates to Mus musculus. Put plainly: compound was tested in vivo for hypoglycemic activity in 6-8 week old C57BL/6J ob/ob mouse at 10 mg/kg. Type of assay: functional.
The species entered for assay [16] is Rattus norvegicus. The assay can be described thus: Compound was tested for inhibition of gluconeogenesis. Type of assay: functional. The settings on record: Rattus norvegicus; read-out: ED50.
Assay [17] relates to 3T3-L1. Put plainly: compound was evaluated for their acute effects in vitro by measuring 2-Deoxyglucose (2DG) uptake in vehicle treated 3T3-L1 adipocytes at 300 uM dose. It counts as functional.
The test system of assay [18] is 3T3-L1. Put plainly: compound was evaluated for their acute effects in vitro by measuring 2-Deoxyglucose (2DG) uptake in vehicle treated 3T3-L1 adipocytes at concentration of 10 micro M. It counts as functional.
In assay [19] the test system is 3T3-L1. The assay can be described thus: compound was evaluated for their acute effects in vitro by measuring 2-Deoxyglucose (2DG) uptake in vehicle treated 3T3-L1 adipocytes at concentration of 3 micro M. It counts as functional.
The test system of assay [20] is 3T3-L1. Put plainly: compound was evaluated for their acute effects in vitro by measuring 2-Deoxyglucose (2DG) uptake in vehicle treated 3T3-L1 adipocytes at concentration of 30 micro M. Type of assay: functional.
The subject of assay [21] is Mus musculus. Put plainly: In vivo hypoglycemic activity expressed as glucose lowering relative to positive control in 6-8 week old C57BL/6J ob/ob mouse at 1 mg/kg. Type of assay: functional.
For assay [22], the system named is Mus musculus. The assay can be described thus: In vivo hypoglycemic activity expressed as glucose lowering relative to positive control in 6-8 week old C57BL/6J ob/ob mouse at 5 mg/kg. It counts as functional.
In assay [23] the test system is Mus musculus. Put plainly: compound was tested in vivo for hypoglycemic activity in 6-8 week old C57BL/6J ob/ob mouse at 0.5 mg/kg. It counts as functional.
In assay [24] the test system is L6. The assay can be described thus: compound was evaluated for their acute effects in vitro by measuring 2-Deoxyglucose (2DG) uptake in vehicle treated L6 […] at 10 uM dose. Type of assay: functional.
The subject of assay [25] is L6. The assay can be described thus: compound was evaluated for their acute effects in vitro by measuring 2-Deoxyglucose (2DG) uptake in vehicle treated L6 […] at 3 uM dose. Type of assay: functional.
In assay [26] the test system is 3T3-L1. Put plainly: In vitro measurements of 2-Deoxyglucose (2DG) uptake in vehicle treated 3T3-L1 adipocytes at 60 uM dose. It counts as functional.
Assay [27] deals with Mus musculus. Put plainly: compound was tested in vivo for hypoglycemic activity in 6-8 week old C57BL/6J ob/ob mouse at 5 mg/kg. It counts as functional.
In assay [28] the test system is Mus musculus. The assay can be described thus: compound was tested in vivo for hypoglycemic activity expressed as Glucose lowering relative to positive control in 6-8 week old C57BL/6J ob/ob mouse at 0.1 mg/kg. Type of assay: functional.
The subject of assay [29] is Mus musculus. The assay can be described thus: compound was tested in vivo for hypoglycemic activity expressed as Glucose lowering relative to positive control in 6-8 week old C57BL/6J ob/ob mouse at 0.5 mg/kg. It counts as functional.
Assay [30] concerns 3T3-L1. Put plainly: compound was evaluated for their acute effects in vitro by measuring 2-Deoxyglucose (2DG) uptake in vehicle treated 3T3-L1 adipocytes at 0.3 uM dose. It counts as functional.
Assay [31] concerns 3T3-L1. The assay can be described thus: compound was evaluated for their acute effects in vitro by measuring 2-Deoxyglucose (2DG) uptake in vehicle treated 3T3-L1 adipocytes at 1 uM dose. It counts as functional.
Assay [32] deals with L6. Put plainly: Compound was evaluated for their acute effects in vitro by measuring 2-Deoxyglucose (2DG) uptake in vehicle treated L6 […] at 100 uM dose. It counts as functional.
For assay [33], the system named is L6. The assay can be described thus: Compound was evaluated for their acute effects in vitro by measuring 2-Deoxyglucose (2DG) uptake in vehicle treated L6 […] at 10 uM dose. Type of assay: functional.
Assay [34] deals with L6. Put plainly: Compound was evaluated for their acute effects in vitro by measuring 2-Deoxyglucose (2DG) uptake in vehicle treated L6 […] at 1 uM dose. Type of assay: functional.
Assay [35] deals with L6. The assay can be described thus: Compound was evaluated for their acute effects in vitro by measuring 2-Deoxyglucose (2DG) uptake in vehicle treated L6 […] at 3 uM dose. It counts as functional.
Assay [36] deals with L6. Put plainly: Compound was evaluated for their acute effects in vitro by measuring 2-Deoxyglucose (2DG) uptake in vehicle treated L6 […] at 60 uM dose. Type of assay: functional.
Assay [37] concerns Mus musculus. The assay can be described thus: Basal glucose(mg/dl) level when compound given at 5 mg/kg/day in pair feeding study with ob/ob mice. It counts as functional.
Assay [38] has as its system Mus musculus. Put plainly: Food intake (g/5 mice/ 5 days) when compound given at 5 mg/kg/day in pair feeding study with ob/ob mice. It counts as functional.
In assay [39] the test system is Mus musculus. Put plainly: Glucose(mg/dl) level, on day 5 when compound given at 5 mg/kg/day in pair feeding study with ob/ob mice. It counts as functional.
The subject of assay [40] is Mus musculus. The assay can be described thus: Net body weight delta (g)when compound given at 5 mg/kg/day in pair feeding study with ob/ob mice. Type of assay: functional.
In assay [41] the test system is Mus musculus. Put plainly: compound was tested in vivo for hypoglycemic activity expressed as Glucose lowering relative to positive control in 6-8 week old C57BL/6J ob/ob mouse at 20 mg/kg. Type of assay: functional.
The species named for assay [42] is Rattus norvegicus. Put plainly: Percentage inhibition of Glucagon stimulated Gluconeogenesis in Isolated Rat Hepatocytes in vitro. It counts as functional, Hepatocyte.
Assay [43] is filed under the species Rattus norvegicus. The assay can be described thus: Percentage inhibition of basal stimulated Gluconeogenesis in Isolated Rat Hepatocytes in vitro. Type of assay: functional, Hepatocyte.
The test system of assay [44] is L6. Put plainly: Compound was evaluated for their acute effects in vitro by measuring 2-Deoxyglucose (2DG) uptake in vehicle treated L6 […] at 30 uM dose. It counts as functional.

A word on the ED50: it is the dose at which the effect has come halfway, by size or by number of responders. Turning to `Cc1ccc(S(=O)(=O)C(CCCCCc2ccc(Cl)cc2)C(=O)O)cc1` (stereo not drawn), the Basal uptake in the assay on 3T3-L1 [1] is on record as 250%; in the assay with 3T3-L1 [2] it was 93%; in the assay with 3T3-L1 [3] it was 100%; with 3T3-L1 [4] it was 114%; in the assay on L6 [5] it was 124%; with L6 [6], 134%. Moreover, the Basal uptake in the assay with L6 [7] is listed as 88%. Besides, the Hypoglycemic activity is given as 22% in the assay with Mus musculus [8], 60% in the assay with Mus musculus [9] and 71% in the assay with Mus musculus [10]. Further, the ED50 in the assay filed under Rattus norvegicus [11] stood at 25 mg/kg.

Regarding `CC(C)c1ccc(SC(C)(Cc2ccc(Cl)cc2)C(=O)[O-])cc1.[Na+]` (stereo not drawn), the Basal uptake with 3T3-L1 [12] was determined as 83%; with 3T3-L1 [13], 119%; in the assay on 3T3-L1 [14], 187%. Further, in the assay on Mus musculus [15], the Hypoglycemic activity is given as 31%. The ED50 in the assay filed under Rattus norvegicus [16] is more than 10 mg/kg.

Consider `CCc1cccc(CC(C)(Oc2ccc(C(C)C)cc2)C(=O)[O-])c1.[Na+]` (stereo not drawn), for which the Basal uptake was found to be 127% in the assay on 3T3-L1 [2]; 117% with 3T3-L1 [17]; 102% with 3T3-L1 [4]; 194% with 3T3-L1 [18]; 131% in the assay on 3T3-L1 [19]; 246% with 3T3-L1 [20]. Further, the figures for the Hypoglycemic activity in the assay with Mus musculus [8], in the assay on Mus musculus [21] and with Mus musculus [22] were 147%, 76% and 101%, respectively. For the same molecule, the Hypoglycemic in the assay on Mus musculus [23] was less than 0. Also, in the assay listed under Rattus norvegicus [11], the ED50 came to 0.5 mg/kg.

With `CC(C)c1ccc(OC(C)(Cc2cccc(C(F)(F)F)c2)C(=O)[O-])cc1.[Na+]` (stereo not drawn), the Basal uptake with L6 [24] came out at 104%; in the assay with L6 [7], 121%; in the assay on L6 [25], 129%. Also, the Hypoglycemic activity is 64% with Mus musculus [8], 44% with Mus musculus [21] and 46% in the assay on Mus musculus [22]. Also, the ED50 in the assay filed under Rattus norvegicus [11] came to 5 mg/kg.

Take `CCc1ccc(CC(C)(Oc2ccc(C(C)C)cc2)C(=O)[O-])cc1.[Na+]` (stereo not drawn): the Basal uptake was found to be 109% in the assay on 3T3-L1 [26], 108% in the assay with 3T3-L1 [18], 94% with 3T3-L1 [19] and 216% with 3T3-L1 [20]. In the assay with Mus musculus [27], the “Glucose lowering relative to positive control” value was 109%. Further, the Hypoglycemic activity in the assay on Mus musculus [28] is given as 55%; in the assay with Mus musculus [29], 76%; in the assay with Mus musculus [8], 119%; in the assay with Mus musculus [21] it was 86%. Also, in the assay filed under Rattus norvegicus [11], the ED50 worked out at 0.1 mg/kg.

In general, Inhibition refers to the share of the control response that was lost under treatment. A higher Inhibition goes with a strong effect. Consider `CC(C)c1ccc(OC(C)(Cc2ccc(Cl)cc2)C(=O)O)cc1` (stereo in doubt; 26), for which the Basal uptake in the assay with 3T3-L1 [30] is reported as 106%; in the assay with 3T3-L1 [1] it was 220%; in the assay with 3T3-L1 [2], 94%; in the assay with 3T3-L1 [31], 86%; with 3T3-L1 [3], 100%; with 3T3-L1 [4], 98%. Besides, the Basal uptake in the assay with 3T3-L1 [26] was found to be 110%; with 3T3-L1 [18], 200%; with 3T3-L1 [19], 139%; in the assay with 3T3-L1 [20], 291%; in the assay on L6 [32], 88%; in the assay with L6 [33], 96%. Also, the Basal uptake with L6 [34] was found to be 101%; in the assay with L6 [35], 97%; in the assay on L6 [36] it was 108%; in the assay on L6 [44] it was 87%. Also, in the assay on Mus musculus [37], the Basal glucose came out at 341 mg/dL. Also, the Food intake in the assay on Mus musculus [38] turned out to be 132 g 5mice-1 5days-1. This molecule came in with a Glucose in the assay with Mus musculus [39] of 223 mg/dL. In addition, in the assay with Mus musculus [40], the “Net body weight delta” value was found to be 0.4 g. The Hypoglycemic activity in the assay with Mus musculus [8] stood at 111%; in the assay with Mus musculus [21] (1 mg/kg) it was 50%; with Mus musculus [41], 104%; in the assay on Mus musculus [9] it was 90%; in the assay with Mus musculus [10], 83%; with Mus musculus [22] (5 mg/kg), 77%. Besides, the median effective dose (ED50) in the assay filed under Rattus norvegicus [11] was determined as 1 mg/kg. The Inhibition came to 22% in the assay listed under Rattus norvegicus [42] and 36% in the assay filed under Rattus norvegicus [43].
